Source: paper PMC12564639, “Discovery of a Novel Anticoagulant Cystine Knot Peptide from Spider Venom Gland Transcriptome” (International Journal of Molecular Sciences, 2025)
Peptide text beside a SMILES is read from it.

Columns and labels:
[1] = tested on: human embryonic kidney cells (HEK293T); experiment: Cytotoxicity (CCK-8), HEK293T; assay type: cell-based; conditions: 24 h, n = 3
Experimental: (§1) The cytotoxicity of GC38 was evaluated in human embryonic kidney cells (HEK293T), human keratinocytes (HaCaT), and murine macrophage (RAW264.7) cell lines. The cells were from Kunming Cell Bank, Chinese Academy of Sciences. HEK293T and HaCaT cells were cultured in DMEM supplemented with 10% fetal bovine serum (FBS) and 1% penicillin-streptomycin, and RAW264.7 cells were maintained in RPMI 1640 containing 10% FBS and 1% penicillin–streptomycin, with all cell lines incubated at 37 °C under 5% CO2. For cytotoxicity assessment, cells were seeded at a density of 1 × 10^5 cells per well in 96-well plates and incubated for 12 h. […] After 24 h incubation, cell viability was determined using the CCK-8 assay (10 μL/well). Absorbance was measured at 450 nm using a multi-mode microplate reader (BioTek Synergy™ H1, Winooski, VT, USA). Untreated cells and cells treated with 10% DMSO served as negative and positive controls, respectively. Viability percentages were calculated relative to the untreated control. All experiments were conducted in triplicate, and data were expressed as mean ± SEM.

[2] = tested on: mouse tail bleeding; experiment: Tail bleeding time; assay type: in vivo, C57BL/6J mice; conditions: n = 6; for tail bleeding time: 10 min after administration, vehicle 89.8 s
Experimental: The C57BL/6J mice (male, 6–8 weeks old) were purchased from Beijing Vital River Laboratory Animal Technology Co., Ltd. (Beijing, China). All animal studies were performed under the approval of the Ethics Committee of the Laboratory Animal Welfare of the Kunming Institute of Zoology, Chinese Academy of Sciences (IACUC-RE-2025-03-010).
The mouse tail-bleeding assay was performed to evaluate the bleeding risk associated with GC38 treatment. Male C57BL/6J mice (6–8 weeks, n = 6 per group) were randomized to receive intravenous injection of PBS (negative control), GC38 (2 or 4 mg/kg in PBS), or heparin sodium (1000 U/kg, positive control). The assay was conducted 10 min after administration. Mice were anesthetized, and a 2 mm segment of the tail tip was surgically transected using a sterile scalpel. Immediately after the incision, the tail was immersed in prewarmed PBS (37 °C) to facilitate blood flow. Bleeding time was recorded from the moment of the incision until the complete cessation of bleeding (no blood flow for 60 s).

[3] = tested on: plasma clotting (coagulation pathway); experiment: Plasma recalcification time (PRT); assay type: biochemical; conditions: fresh plasma, 10 min at 37 °C, n = 3
Experimental: Plasma recalcification time (PRT) was used to evaluate the effects of GC38 on the coagulation pathway. Fresh plasma was incubated with GC38 (0.1, 1, and 10 µM) for 10 min at 37 °C. After incubation, the plasma was mixed with an equal volume of 25 mM calcium chloride solution, and the timer was immediately started. The time required for plasma clot formation was recorded. The group treated with PBS served as the control. Each concentration was tested in triplicate, and the average value and PRT at maximum reactive velocity were reported.

[4] = tested on: murine macrophage (RAW264.7); experiment: Cytotoxicity (CCK-8), RAW264.7; assay type: cell-based; parameters: cytotoxicity RAW264.7: dose or concentration left out as unconfirmed; conditions: 24 h, n = 3
Experimental: as §1

[5] = tested on: human plasma, intrinsic clotting cascade; experiment: Activated partial thromboplastin time (APTT); assay type: biochemical; conditions: GC38 10 μM; human plasma 20 μL, pre-incubation 5 min at 37 °C, APTT reagent 5 min, CaCl2; scattered light; mean, n = 3
Experimental: (§2) APTT and PT were measured with commercially available kits according to the manufacturer’s instructions. For APTT determination, 20 μL human plasma was pre-incubated with GC38 (0.1, 1, and 10 µM) at 37 °C for 5 min, and then 30 μL APTT reagent was added and incubated for another 5 min. Subsequently, 40 μL pre-warmed CaCl2 (37 °C) was added to initiate the intrinsic clotting cascade. The intensity of the scattered light was monitored until the signals reached saturation. For PT determination, 20 μL human plasma was pre-incubated with GC38 (0.1, 1, and 10 µM) at 37 °C for 5 min. Then, 75 μL PT reagent was added to initiate the extrinsic clotting cascade. The intensity of the scattered light was monitored until the signals reached saturation. The coagulation time (APTT or PT) was defined as the time point at which the scattered light signal reached the midpoint between the baseline and maximum amplitude. All concentrations were tested in triplicate. Results are shown as mean values, and the time at maximum reactive velocity was also reported.

[6] = tested on: human plasma, extrinsic clotting cascade; experiment: Prothrombin time (PT); assay type: biochemical; conditions: GC38 0.1-10 μM; human plasma 20 μL, pre-incubation 5 min at 37 °C, PT reagent; scattered light; n = 3
Experimental: as §2

[7] = tested on: mouse red blood cells (RBCs); experiment: Hemolysis assay; assay type: cell-based; conditions: 50 μM; RBCs 1 × 10^8/mL in PBS, 37 °C, 30 min; absorbance 450 nm; versus 1% Triton X-100; n = 3
Experimental: The hemolytic activity of GC38 was assessed using mouse red blood cells (RBCs). Fresh […] blood was centrifuged at 1500 rpm for 5 min to isolate RBCs, followed by three washes with sterile PBS and resuspension in PBS with a density of 1 × 10^8 RBCs/mL. GC38 was diluted in PBS to concentrations ranging from 3.125 to 50 μM. For the assay, 100 µL of the RBC suspension was mixed with an equal volume of GC38 solution and incubated at 37 °C for 30 min. After incubation, the samples were centrifuged at 1500 rpm for 5 min to pellet intact RBCs. The absorbance of the supernatant was measured at 450 nm using a multi-mode microplate reader (BioTek Synergy™ H1, Winooski, VT, USA). PBS and 1% Triton X-100-treated groups served as negative and positive controls, respectively. The percentage of hemolysis was calculated by comparing the absorbance values of the samples to those of the controls. All concentrations underwent triplicate testing, with results presented as mean ± SEM.

[8] = 50 μM, serum-free medium, CCK-8, 450 nm, relative to untreated control

Structure (SMILES): CSCC[C@@H]1NC(=O)[C@H](CC(N)=O)NC(=O)CNC(=O)CNC(=O)[C@H](Cc2c[nH]cn2)NC(=O)[C@H](CCCNC(=N)N)NC(=O)CNC(=O)[C@@H]2CSSC[C@@H]3NC(=O)[C@H](CCCNC(=N)N)NC(=O)[C@H](C)NC(=O)CNC(=O)[C@H](CCCCN)NC(=O)CNC(=O)[C@H](CO)NC(=O)[C@@H](NC(=O)CN)CSSC[C@H](NC(=O)[C@H](CSSC[C@@H](C(=O)N[C@@H](CCC(=O)O)C(=O)N[C@@H](Cc4c[nH]c5ccccc45)C(=O)N[C@@H](CC(N)=O)C(=O)N[C@@H](Cc4c[nH]c5ccccc45)C(=O)N[C@@H](CCCCN)C(=O)N[C@H](C(=O)NCC(=O)O)[C@@H](C)O)NC(=O)[C@H](CO)NC(=O)[C@H](CCCCN)NC(=O)[C@H](Cc4ccc(O)cc4)NC1=O)NC(=O)[C@H](CCCCN)NC(=O)[C@H](CO)NC(=O)[C@@H]1CCCN1C(=O)[C@H](C)NC3=O)C(=O)N[C@@H](CO)C(=O)NCC(=O)N[C@@H](CC(C)C)C(=O)N[C@@H](CO)C(=O)N2 [GC38] (HELM PEPTIDE1{G.C.S.G.K.G.A.R.C.A.P.S.K.C.C.S.G.L.S.C.G.R.H.G.G.N.M.Y.K.S.C.E.W.N.W.K.T.G}$PEPTIDE1,PEPTIDE1,2:R3-15:R3|PEPTIDE1,PEPTIDE1,9:R3-20:R3|PEPTIDE1,PEPTIDE1,14:R3-31:R3$$$V2.0)
- cell viability HEK293T [1, 8]: greater than 95%
- cytotoxicity HEK293T ([1]; 0.1–50 μM, CCK-8): negligible cytotoxicity
- tail bleeding time ([2]; GC38 2 mg/kg i.v.): 97.6 s
- tail bleeding time ([2]; GC38 4 mg/kg i.v.): 100.6 s
- tail bleeding time versus vehicle control ([2]; GC38 2 and 4 mg/kg i.v.): comparable to the vehicle control group
- PRT clotting time versus negative control (time to Vmax) ([3]; GC38 10 μM, then 25 mM CaCl2, mean): 1.4 fold
- clotting time in plasma (PRT), dose response ([3]; GC38 0.1-10 μM, then equal volume 25 mM CaCl2): prolonged clotting time in plasma in a dose-responsive manner
- cell viability RAW264.7 [4, 8]: greater than 95%
- cytotoxicity RAW264.7 ([4]; CCK-8): negligible cytotoxicity
- APTT extension versus control [5]: 1.4 fold
- prothrombin time (PT) effect [6]: no apparent effects on prothrombin time (PT)
- hemolytic activity [7]: below 3%
